Measured values as given in publication PMC6562696, “Anti-Inflammatory Effects by Pharmacological Inhibition or Knockdown of Fatty Acid Amide Hydrolase in BV2 Microglial Cells” (Cells, 2019).

Target: T1, Fatty acid amide hydrolase (FAAH) (Mus musculus, UniProt O08914)
T1 construct: endogenous FAAH in BV2 microglial cell membrane fraction
T1 sequence (O08914 1-579): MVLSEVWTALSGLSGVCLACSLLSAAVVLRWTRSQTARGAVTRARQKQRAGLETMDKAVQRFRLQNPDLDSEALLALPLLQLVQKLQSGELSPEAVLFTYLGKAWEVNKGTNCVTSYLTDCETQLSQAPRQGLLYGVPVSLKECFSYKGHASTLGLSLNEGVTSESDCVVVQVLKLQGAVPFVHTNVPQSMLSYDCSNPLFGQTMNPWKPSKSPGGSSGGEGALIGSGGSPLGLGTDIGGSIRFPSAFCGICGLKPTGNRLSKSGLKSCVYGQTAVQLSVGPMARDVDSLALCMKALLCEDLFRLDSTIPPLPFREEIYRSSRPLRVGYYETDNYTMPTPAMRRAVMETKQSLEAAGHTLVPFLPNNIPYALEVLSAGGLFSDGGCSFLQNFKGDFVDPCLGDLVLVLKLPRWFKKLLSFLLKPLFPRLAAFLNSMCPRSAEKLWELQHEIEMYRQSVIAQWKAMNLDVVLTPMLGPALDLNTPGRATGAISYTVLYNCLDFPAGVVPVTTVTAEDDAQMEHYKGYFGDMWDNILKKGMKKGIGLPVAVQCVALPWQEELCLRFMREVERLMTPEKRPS
Assay: radiolabeled AEA hydrolysis in BV2 membranes; blocked by FAAH inhibitors, reduced […] by FAAH siRNA
Type: cell-based

## CCCCC/C=C\C/C=C\C/C=C\C/C=C\CCCC(=O)NCCO [anandamide]
  radiolabeled AEA hydrolysis in BV2 membranes; blocked by FAAH inhibitors, reduce: These results indicated that all AEA hydrolysis activity was attributed to FAAH in BV2 microglial cells.
